From paper PMC8252068, “Biochemical Investigation of the Interaction of pICln, RioK1 and COPR5 with the PRMT5–MEP50 Complex” (Chembiochem, 2021) come the findings set out here.

Read-outs that look alike come from different tables or passages of the source. Where a SMILES comes first, the peptide text is derived from it. The star is where a group is joined. FITC = O=C1OC2(c3ccc(O)cc3Oc3cc(O)ccc32)c2ccc(NC(=S)*)cc21; AEEA = NCCOCCOCC(=O)O

Assay [1] has as its target T1, TIM–MEP50 complex (PRMT5 residues 1–292 co-expressed with MEP50) (Homo sapiens, UniProt O14744+Q9BQA1).
T1 construct: truncated PRMT5 protein (residues 1–292), corresponding to the TIM barrel domain, was either expressed alone or co‐expressed as a complex with MEP50; His-TRX with 3C cleavage site (N, cleaved yes); made in house; host or cells: HighFive insect cells (flashBAC baculovirus system)
The assay is described as follows: Fluorescence polarisation direct binding assay, TIM–MEP50. As to conditions: 20-21 °C, n=3. How it is done: (§1) All proteins were expressed at the Protein Chemistry Facility (PCF) based in the MPI Dortmund.
(§2) For expression of the proteins, all constructs were subcloned into pOPIN vectors.
(§3) Full-length human pICln, N-terminally tagged with 6His-TRX followed by the 3C cleavage site, and TIM barrel domain (1-292 aa) of human PRMT5, N-terminally tagged with 6His-SUMO, were expressed in BL21 CodonPlus (DE3) RIPL strain of Escherichia coli. Bacteria with the respective plasmids were cultured in Terrific Broth medium. Expression of TIM barrel was auto-induced, with incubation of the starter-culture (starting OD of ~0.05) at 35 °C for 2.5h, followed by an overnight incubation (20 -24h) at 25 °C. Expression of pICln was induced at OD ~0.6-0.8 using 0.3 mM IPTG and E. coli was incubated at 20 °C for 20h. Bacteria were harvested by centrifugation and lysed.
(§4) Expression of full-length human RioK1 tagged with 6NHis-3C and co-expression of full-length human PRMT5 (N-terminal 6His-MBP with 3C) with MEP50 (N-terminal 6His-TRX with 3C), and of TIM barrel (1-292 aa) with MEP50 (both N-terminally tagged with His-TRX with 3C cleavage site) was done using the Flash Bac Expression System (Oxford Expression Technologies, UK) with HighFive insect cells in Gibco Sf-900 III SFM medium. The cells were harvested by centrifugation and lysed.
(§5) All proteins were purified at the PCF (MPI Dortmund).
(§6) Protein purification was performed on HisTrap FF crude 5 ml Ni-based column, followed by the on-column treatment with 6His-tagged HRV-3C PreScission protease, or in case of the SUMO-tagged TIM barrel, with 6His-tagged SUMO protease. The cleaved proteins were then further purified using gel filtration chromatography with the HiLoad 26/60 Superdex 75 or 200 prep grade column. PRMT5 -MEP50, TIM-MEP50 and TIM barrel were stored in a buffer containing 50 mM HEPES, 250 mM NaCl, 1 mM TCEP with the pH adjusted to 8.0, whereas, pICln was stored in a buffer of 20 mM phosphate, 100 mM NaCl, 5 mM TCEP and pH of 7.5, whereas RioK1 was stored in a buffer of 50 mM Tris, 200 mM NaCl, 10% glycerol, 1 […]
(§7) Protein Labelling with Alexa 488
(§8) To a protein solution (ca. 1 mg/ml) in 0.2 M bicarbonate buffer with 1 mM TCEP at pH 8.3, was added 10 mM Alexa 488 NHS-ester in DMSO (8 equiv), and the mixture was kept on ice, in darkness, overnight. The protein was washed eight times with buffer (50 mM HEPES, 250 mM NaCl, 1 mM TCEP, 8.0 pH) using an Amicon® Ultra-0.5 mL spin filter. Protein concentration was then determined using the NanoDrop […]
(§9) Fluorescence Polarisation (FP)
(§10) The assay was performed in a buffer of 50 mM HEPES, 250 mM NaCl, 1 mM TCEP, 0.01% (v/v) Tween 20, pH 8.0, in black, 384 well-plates, with a total volume of 10 μl per well. The analysed, FITC labelled peptides, or Alexa488-labelled pICln or RioK1, were tested at a final concentration of 1 nM, and the appropriate unlabelled protein was titrated as two-fold dilution series. The plates were incubated at 20-21 °C for 30 min in case of FITC -labelled peptides or 1-2h in case of the Alexa488-labelled protein, and analysed on a plate reader using 485 nm excitation and 535 nm emission wavelength. The assay was performed in […]
Background: Fluorescence polarisation rises when a labelled molecule tumbles more slowly, as on binding a larger partner.

The target in assay [2] is T2, TIM barrel domain of PRMT5 (residues 1–292) (Homo sapiens, UniProt O14744).
T2 construct: barrel domain (1-292 aa) of human PRMT5, N-terminally tagged with 6His-SUMO; 6His-SUMO (N, cleaved yes); made in house; host or cells: Escherichia coli BL21 CodonPlus (DE3) RIPL
T2 sequence (O14744 1-292): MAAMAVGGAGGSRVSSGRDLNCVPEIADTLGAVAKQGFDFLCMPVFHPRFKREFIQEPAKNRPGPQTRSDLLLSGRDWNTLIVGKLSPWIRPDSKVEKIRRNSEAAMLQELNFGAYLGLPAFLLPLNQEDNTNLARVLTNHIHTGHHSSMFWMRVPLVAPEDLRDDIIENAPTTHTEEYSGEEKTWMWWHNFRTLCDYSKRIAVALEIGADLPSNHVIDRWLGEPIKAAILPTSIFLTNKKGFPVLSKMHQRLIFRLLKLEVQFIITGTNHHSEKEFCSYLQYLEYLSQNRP
The assay is described as follows: Fluorescence polarisation direct binding assay, isolated TIM barrel. The method, then:
as §1, §2
as §3, with “lysed. […]” for “lysed.”
To a protein solution (ca. 1 mg/ml) in 0.2 M bicarbonate buffer with 1 mM TCEP at pH 8.3, was added 10 mM Alexa 488 NHS-ester in DMSO (8 equiv), and the mixture was kept on ice, in darkness, overnight. […] Protein concentration was then determined using the NanoDrop […]
as §9
The assay was performed in a buffer of 50 mM HEPES, 250 mM NaCl, 1 mM TCEP, 0.01% (v/v) Tween 20, pH 8.0, in black, 384 well-plates, with a total volume of 10 μl per well. The analysed, FITC labelled peptides, or Alexa488-labelled pICln or RioK1, were tested at a final concentration of 1 nM, and the appropriate unlabelled protein was titrated as two-fold dilution series. The plates were incubated at 20-21 °C for 30 min in case of FITC -labelled peptides or 1-2h in case of the Alexa488-labelled protein, and analysed on a plate reader using 485 nm excitation and 535 nm emission wavelength. […]

Assay [3] concerns the target T3, native PRMT5–MEP50 complex (Homo sapiens, UniProt O14744+Q9BQA1).
T3 construct: Full‐length PRMT5–MEP50; 6His-MBP with 3C site (N, cleaved yes); made in house; host or cells: HighFive insect cells (flashBAC baculovirus system)
The assay is described as follows: Fluorescence polarisation direct binding assay, full-length PRMT5–MEP50. As to conditions: 20-21 °C, n=3.
Excerpt: as §1
For expression of the proteins, all constructs were subcloned into pOPIN vectors. […]
as §4, §5, §6, §7, §8, §9, §10

For assay [4], the target named is T4, TIM–MEP50 (Homo sapiens, UniProt O14744+Q9BQA1).
T4 construct: truncated PRMT5 protein (residues 1–292), corresponding to the TIM barrel domain, was either expressed alone or co‐expressed as a complex with MEP50; His-TRX with 3C cleavage site (N, cleaved yes); made in house; host or cells: HighFive insect cells (flashBAC baculovirus system)
T4 sequence (O14744 1-292): as above
T4 sequence (Q9BQA1 whole entry partner, the tested form may be a part): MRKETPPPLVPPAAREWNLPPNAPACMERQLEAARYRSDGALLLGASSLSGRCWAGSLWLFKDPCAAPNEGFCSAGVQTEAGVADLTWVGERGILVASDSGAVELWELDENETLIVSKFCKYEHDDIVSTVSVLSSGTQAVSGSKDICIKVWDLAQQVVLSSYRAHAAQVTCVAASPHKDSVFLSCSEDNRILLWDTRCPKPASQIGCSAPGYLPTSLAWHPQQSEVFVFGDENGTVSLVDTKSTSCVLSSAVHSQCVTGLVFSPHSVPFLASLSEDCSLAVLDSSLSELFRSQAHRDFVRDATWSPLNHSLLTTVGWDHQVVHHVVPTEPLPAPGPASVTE
The assay is described as follows: Flow induced dispersion analysis (FIDA), TIM–MEP50. It is filed as binding. As to conditions: technical triplicate. The method, then: (§11) Nucleodur C18 Gravity column, with a flow rate of 0.56 ml/min, and the samples obtained from the stability assay were tested using 125 mm x 3 mm, 5 μm Macherey-Nagel Nucleodur C4 Gravity at a flow rate of 1 ml/min, in both cases using elution system: 5% → 65% MeCN (0.1% TFA) in H2O (0.1% TFA) over 14 min. HRMS analyses were performed on a LTQ Orbitrap mass spectrometer (Thermo Fisher Scientific, USA) using electrospray ionization. Concentrations of PRMT5 -MEP50, TIM -MEP50 and TIM were measured with the Bradford assay, using Protein Assay Dye Reagent from Bio -Rad (Cat. #500-0006; Bio- […]

In assay [5] the target is T5, PRMT5–MEP50 (Homo sapiens, UniProt O14744+Q9BQA1).
T5 construct: Full‐length PRMT5–MEP50; 6His-MBP with 3C site (N, cleaved yes); made in house; host or cells: HighFive insect cells (flashBAC baculovirus system)
T5 sequence (O14744 whole entry): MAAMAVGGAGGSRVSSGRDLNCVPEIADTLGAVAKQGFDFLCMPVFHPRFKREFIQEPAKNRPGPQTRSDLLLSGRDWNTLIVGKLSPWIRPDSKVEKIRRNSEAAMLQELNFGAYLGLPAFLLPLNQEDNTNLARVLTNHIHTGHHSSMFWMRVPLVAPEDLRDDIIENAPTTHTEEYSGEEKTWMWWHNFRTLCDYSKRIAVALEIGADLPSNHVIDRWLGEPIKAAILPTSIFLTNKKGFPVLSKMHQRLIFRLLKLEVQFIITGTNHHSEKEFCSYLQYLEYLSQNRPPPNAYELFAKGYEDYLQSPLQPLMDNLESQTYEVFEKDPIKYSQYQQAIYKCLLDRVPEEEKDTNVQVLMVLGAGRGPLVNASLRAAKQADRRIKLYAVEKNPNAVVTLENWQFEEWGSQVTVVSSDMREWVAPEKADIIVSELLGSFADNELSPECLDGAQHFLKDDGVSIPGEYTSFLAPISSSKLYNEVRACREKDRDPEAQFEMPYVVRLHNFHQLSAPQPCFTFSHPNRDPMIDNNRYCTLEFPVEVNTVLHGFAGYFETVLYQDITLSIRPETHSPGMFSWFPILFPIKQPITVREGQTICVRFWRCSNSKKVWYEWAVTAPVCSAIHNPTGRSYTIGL
T5 sequence (Q9BQA1 whole entry partner): as the sequence (Q9BQA1 whole entry partner, the tested form may be a part) above
The assay can be described thus: Flow induced dispersion analysis (FIDA), PRMT5–MEP50. As to conditions: technical triplicate. It is filed as binding. How it is done:
as §11

Setting [6] is: FP direct binding, FITC peptide 1 nM, protein titrated, HEPES buffer pH 8.0, 30 min, n.b. = no binding, read-out: K D value, TIM–MEP50.
Setting [7] is: FP using the native PRMT5–MEP50 complex, FITC peptide 1 nM, pH 8.0, 30 min, n.b. = no binding, read-out: K D (Table 2, peptides 1–16).

T3 sequence (O14744 whole entry): as the sequence (O14744 whole entry) above
T3 sequence (Q9BQA1 whole entry partner): as the sequence (Q9BQA1 whole entry partner, the tested form may be a part) above
T1 sequence (O14744 1-292): as the sequence (O14744 1-292) above
T1 sequence (Q9BQA1 whole entry partner, the tested form may be a part): as the sequence (Q9BQA1 whole entry partner, the tested form may be a part) above

`CSCC[C@H](NC(=O)COCCOCCNC(=S)Nc1ccc2c(c1)C(=O)OC21c2ccc(O)cc2Oc2cc(O)ccc21)C(=O)N[C@H](C(=O)N[C@@H](Cc1ccccc1)C(=O)N[C@@H](CCC(=O)O)C(=O)N[C@H](C(=O)NCC(=O)N[C@@H](CCC(N)=O)C(=O)N[C@@H](Cc1ccccc1)C(=O)N[C@@H](CC(=O)O)C(=O)N[C@@H](CC(=O)O)C(=O)N[C@@H](C)C(=O)N[C@@H](CCC(=O)O)C(=O)N[C@@H](CC(=O)O)C(N)=O)[C@@H](C)O)C(C)C` [compound 3] ({FITC-AEEA}-MVFETGQFDDAED-NH2): the Kd worked out at 460 nM in assay [1] (setting [6]), 2400 ± 320 nM in assay [2] and 549 ± 119 nM in assay [3] (setting [7]).
In the case of `CC(C)[C@H](NC(=O)[C@H](CCCNC(=N)N)NC(=O)[C@H](CO)NC(=O)COCCOCCNC(=S)Nc1ccc2c(c1)C(=O)OC21c2ccc(O)cc2Oc2cc(O)ccc21)C(=O)N[C@H](C(=O)N1CCC[C@H]1C(=O)NCC(=O)N[C@@H](CCC(N)=O)C(=O)N[C@@H](Cc1ccccc1)C(=O)N[C@@H](CC(=O)O)C(=O)N[C@@H](CC(=O)O)C(=O)N[C@@H](C)C(=O)N[C@@H](CC(=O)O)C(N)=O)C(C)C` [compound 1] ({FITC-AEEA}-SRVVPGQFDDAD-NH2), the Kd was 840 ± 150 nM in assay [1] (setting [6]), 2800 ± 70 nM in assay [2] and 522 ± 45 nM in assay [3] (setting [7]).
In the same order, the values of `CC(C)[C@H](NC(=O)[C@@H](NC(=O)[C@@H]1CCCN1C(=O)[C@@H](NC(=O)COCCOCCNC(=S)Nc1ccc2c(c1)C(=O)OC21c2ccc(O)cc2Oc2cc(O)ccc21)[C@@H](C)O)[C@@H](C)O)C(=O)N[C@@H](C)C(=O)NCC(=O)N[C@@H](CCC(N)=O)C(=O)N[C@@H](Cc1ccccc1)C(=O)N[C@@H](CCC(=O)O)C(=O)N[C@@H](CC(=O)O)C(=O)N[C@@H](C)C(=O)N[C@@H](CC(=O)O)C(N)=O` [compound 2] ({FITC-AEEA}-TPTVAGQFEDAD-NH2) are 2100 ± 150 nM, 5800 ± 110 nM and 1140 ± 38 nM.
As to “Fitc‐O2Oc‐PTVAGQF‐NH2 [compound 4, DAB1 derived, fluorescently labelled linear peptide]”, the “K D value, TIM–MEP50” value in assay [1] (FP direct binding, FITC peptide 1 nM, protein titrated, HEPES buffer pH 8.0, 30 min, n.b. = no binding) was “did not have affinity and n.b”. In assay [3] (FP direct binding, FITC peptide 1 nM, protein titrated two-fold, 50 mM HEPES, 250 mM NaCl, 1 mM TCEP, 0.01% Tween 20, pH 8.0, 30 min, n.b. = no binding), the “K D value, Full‐length PRMT5–MEP50” value was “did not have affinity and n.b”. Also, the “K D (Table 2, peptides 1–16)” value in assay [3] (FP using the native PRMT5–MEP50 complex, FITC peptide 1 nM, pH 8.0, 30 min, n.b. = no binding) was “n.b”.
As for “pICln-Alexa488: full-length human pICln labelled with the fluorescent dye Alexa488”, the Kd in assay [4] (Supplement Table S4, indicator 10 nM, 25 °C, read-out: Affinity constant, TIM-MEP50 (Table S4, FIDA)) worked out at 64.1 nM; in assay [4] (indicator (Alexa488-labelled protein) 10 nM, HEPES buffer pH 8.0, 0.01% Tween 20, 25 °C, read-out: K D for TIM–MEP50 (FIDA)) it was 64.1 nM; in assay [1] (FP, Alexa488-labelled protein 1 nM, unlabelled complex titrated, pH 8.0, 1-2h, read-out: K D of Alexa488-labelled adaptor protein for TIM–MEP50 (FP)), 4.1 ± 0.6 nM; in assay [3] (FP, Alexa488-labelled protein 1 nM, unlabelled complex titrated, pH 8.0, 1-2h, read-out: K D of Alexa488-labelled adaptor protein for PRMT5–MEP50 (FP)), 9.1 ± 1.5 nM; in assay [5] (Supplement Table S4, indicator 10 nM, 25 °C, read-out: Affinity constant, PRMT5-MEP50 (Table S4, FIDA)), 39.3 nM; in assay [5] (indicator (Alexa488-labelled protein) 10 nM, HEPES buffer pH 8.0, 0.01% Tween 20, 25 °C, read-out: K D for PRMT5–MEP50 (FIDA)), 39.3 nM.
